Data as given in patent US10793542B2, “Hetroarylamine compounds for modulating the hedgehog pathway and preparing method and uses thereof” (DEVELOPMENT CENTER FOR BIOTECHNOLOGY, priority 2016, dated 2020).

What was measured:
Format in all cases: cell-based
[1] = system: hedgehog pathway (pGL3-7xGli-Luciferase reporter in C3H10T1/2 cells); experiment: Transient transfection of C3H10T1/2 and Gli-Luc reporter assay with SAG stimulation; conditions: Mus musculus, C3H 10T1/2, SAG 20 nM, 48 hr, read-out: Inhibition of Gli-Luc expression [IC50
Method: A cell-based screen for inhibitors of the hedgehog pathway was performed using a transient transfection system in C3H10T1/2 cells with pGL3-7xGli-Luciferase reporter plasmids C3H10T1/2 cells (ATCC, cat.#CCL-226) were seeded into 6-well plates at 8×10^4 cells/well in a BME medium containing 10% heat-inactivated FBS. Cells were transfected the next morning with 500 ng/well pGL3-7xGli-Luciferase reporter plasmids and 100 ng/well pRL-TK Renilla luciferase reporter plasmids (Promega)using GeneJuice transfection reagent (Novagene). After 24 h, transfected cells were collected by trypsin treatment and re-plated in 96-well plates in an RPMI medium containing 0.5% FBS with a density of 1.5×10^4 cells/well. Compounds were dissolved in DMSO with serial dilutions and were then added to the assay plate. SAG (Hh-Ag 1.3) (Santa Cruz) was added to the assay plated for a final concentration 20 nM. The assay plates were incubated at 37° C. for 48 hr.
(§1) Firefly luciferase and Renilla luciferase activity was determined using the Dual-Glo Luciferase reporter assay system (Promega) with a Victor3 plate reader (PerkinElmer Life Sciences). Firefly luciferase readings were normalized to Renilla luciferase to correct for transfection efficiency. Luminance reading for the C3H10T1/2-Gli-Luc assay was normalized based on DMSO control with SAG stimulation (100% pathway activity) and without SAG stimulation (0% pathway activity). IC50 values, defined as the inflection point of the logistic curve, were determined by nonlinear regression using the Prism 5 software (GraphPad).

Smo wild type = target: T1, Smo wild type (Homo sapiens, UniProt Q99835); experiment: Reporter assay of C3H10T1/2-Gli-Luc cells transfected with wild-type Smo, without SAG; conditions: C3H10T1/2 cells transfected with pLPCX-SMO, no SAG, 48 hr; read-out: Inhibition of C3H10T1/2-Gli-Luc-Smo-WT [IC50
T1 construct: expressed in transfected cells; host or cells: C3H10T1/2 cells (ATCC CCL-226), transient transfection with pLPCX-SMO
Method: (§2) A transient transfection system with a Smo wild type or a Smo D473H mutant was also used for compound screening. For the SMO inhibition experiments, cells were transfected with an additional 500 ng/well of wild-type or D473H-mutant type SMO construct (pLPCX-SMO or pLPCX-SMO-D473H). After 24 h, transfected cells were collected by trypsin treatment and re-plated in 96-well plates in an RPMI medium containing 0.5% FBS with a density of 1.5×10^4 cells/well. Compounds were dissolved in DMSO with serial dilutions and were then added to the assay plate. The assay plates were incubated at 37° C. for 48 hr.
as §1
(§3) The reporter assay of C3H10T1/2-Gli-Luc cells transfected with a wild-type, D473H mutant Smo mutant was carried out with the same protocol but without SAG stimulation. Luminance reading for the SMO inhibition experiments assay was normalized based on DMSO control (100% of the pathway activity) and a known Smo antagonist (ALLO-2 at 10 μM, 0% of the pathway activity).

Smo D473H mutant = target: T2, Smo D473H mutant (Homo sapiens, UniProt Q99835, D473H); experiment: Reporter assay of C3H10T1/2-Gli-Luc cells transfected with Smo D473H mutant, without SAG; conditions: C3H10T1/2 cells transfected with pLPCX-SMO-D473H, no SAG, 48 hr; read-out: Inhibition of C3H10T1/2-Gli-Luc-Smo-D473H [IC50
T2 construct: expressed in transfected cells; host or cells: C3H10T1/2 cells (ATCC CCL-226), transient transfection with pLPCX-SMO-D473H
Method: as §2, §1, §3

T2 sequence (Q99835 28-787 D473H): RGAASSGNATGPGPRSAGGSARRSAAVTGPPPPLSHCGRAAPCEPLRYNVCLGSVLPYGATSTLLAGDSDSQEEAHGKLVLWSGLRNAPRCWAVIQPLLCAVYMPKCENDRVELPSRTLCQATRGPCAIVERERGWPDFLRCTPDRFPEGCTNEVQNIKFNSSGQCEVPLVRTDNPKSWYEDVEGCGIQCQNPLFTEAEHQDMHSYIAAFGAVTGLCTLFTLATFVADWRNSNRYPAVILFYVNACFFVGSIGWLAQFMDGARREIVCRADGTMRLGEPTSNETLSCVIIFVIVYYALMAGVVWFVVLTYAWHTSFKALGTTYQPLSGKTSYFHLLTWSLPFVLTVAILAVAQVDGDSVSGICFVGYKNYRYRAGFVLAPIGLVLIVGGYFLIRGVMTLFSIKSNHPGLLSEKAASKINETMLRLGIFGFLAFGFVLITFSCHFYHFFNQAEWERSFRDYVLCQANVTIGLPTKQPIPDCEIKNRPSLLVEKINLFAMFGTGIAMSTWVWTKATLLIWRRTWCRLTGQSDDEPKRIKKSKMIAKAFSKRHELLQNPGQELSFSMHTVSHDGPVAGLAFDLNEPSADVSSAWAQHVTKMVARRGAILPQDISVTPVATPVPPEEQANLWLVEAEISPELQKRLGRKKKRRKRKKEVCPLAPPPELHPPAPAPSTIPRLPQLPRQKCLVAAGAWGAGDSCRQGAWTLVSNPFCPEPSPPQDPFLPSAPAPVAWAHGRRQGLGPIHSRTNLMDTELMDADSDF
T1 sequence (Q99835 28-787): as the sequence (Q99835 28-787 D473H) above, with H446D counted along it

Row | SMILES | IC50 [1] | IC50 (Smo wild type) | IC50 (Smo D473H mutant)
1 | COc1cccc(C)c1NC(=O)c1ccc(Nc2ncc(SC)c(-c3ccc(F)nc3)n2)c(F)c1 [Compound 17, 3-Fluoro-4-[4-(6-fluoro-pyridin-3-yl)-5-methylsulfanyl-pyrimidin-2-ylamino]-N-(2-methoxy-6-methyl-phenyl)-benzamide] | 100 to 1000 nM | 100 to 1000 nM | 100 to 1000 nM
2 | CSc1cnc(Nc2ccc(C(=O)Nc3cccc(CN4CCOCC4)c3)cc2)nc1-c1ccc(F)cc1 [Compound 43, 4-[4-(4-Fluoro-phenyl)-5-methylsulfanyl-pyrimidin-2-ylamino]-N-(3-morpholin-4-ylmethyl-phenyl)-benzamide] | < 100 nM | < 100 nM | 100 to 1000 nM
3 | CSc1cnc(Nc2ccc(C(=O)Nc3cc(CN4CCOCC4)ccc3C)cc2)nc1-c1cnn(C)c1 [Compound 39, N-(2-Methyl-5-morpholin-4-ylmethyl-phenyl)-4-[4-(1-methyl-1H-pyrazol-4-yl)-5-methylsulfanyl-pyrimidin-2-ylamino]-benzamide] | 100 to 1000 nM | 100 to 1000 nM | 100 to 1000 nM
4 | CSc1cnc(Nc2ccc(C(=O)Nc3ccccc3)cc2)nc1-c1cccnc1F [Compound 5, 4-[4-(2-Fluoro-pyridin-3-yl)-5-methylsulfanyl-pyrimidin-2-ylamino]-N-phenyl-benzamide] | 100 to 1000 nM | 100 to 1000 nM | 100 to 1000 nM
5 | CCOc1cnc(Nc2ccc(C(=O)Nc3cc(CN4CCOCC4)ccc3C)cc2)nc1-c1ccc(OC(F)(F)F)cc1 [Compound 72, 4-[5-Ethoxy-4-(4-trifluoromethoxy-phenyl)-pyrimidin-2-ylamino]-N-(2-methyl-5-morpholin-4-ylmethyl-phenyl)-benzamide] | < 100 nM | < 100 nM | < 100 nM
6 | CSc1cnc(Nc2ccc(C(=O)Nc3c(C)cccc3C)cc2F)nc1-c1cccnc1F [Compound 12, N-(2,6-Dimethyl-phenyl)-3-fluoro-4-[4-(2-fluoro-pyridin-3-yl)-5-methylsulfanyl-pyrimidin-2-ylamino]-benzamide] | 100 to 1000 nM | 100 to 1000 nM | 100 to 1000 nM
7 | CCOc1cnc(Nc2ccc(C(=O)Nc3cc(CN4CCN(C)CC4)ccc3C)cc2)nc1-c1ccc(OC(F)(F)F)cc1 [Compound 73, 4-[5-Ethoxy-4-(4-trifluoromethoxy-phenyl)-pyrimidin-2-ylamino]-N-[2-methyl-5-(4-methyl-piperazin-1-ylmethyl)-phenyl]-benzamide] | < 100 nM | < 100 nM | 100 to 1000 nM
8 | CCN(CC)Cc1ccc(C)c(NC(=O)c2ccc(Nc3ncc(SC)c(-c4ccc(F)cc4)n3)cc2)c1 [Compound 47, N-(5-Diethylaminomethyl-2-methyl-phenyl)-4-[4-(4-fluoro-phenyl)-5-methylsulfanyl-pyrimidin-2-ylamino]-benzamide] | < 100 nM | < 100 nM | 100 to 1000 nM
9 | CSc1cnc(Nc2ccc(C(=O)Nc3c(F)cccc3F)cc2)nc1-c1cccnc1F [Compound 8, N-(2,6-Difluoro-phenyl)-4-[4-(2-fluoro-pyridin-3-yl)-5-methylsulfanyl-pyrimidin-2-ylamino]-benzamide] | 100 to 1000 nM | 100 to 1000 nM | 100 to 1000 nM
10 | CSc1cnc(Nc2ccc(C(=O)Nc3ccc(C#N)cc3)cc2)nc1-c1cccnc1F [Compound 18, N-(4-Cyano-phenyl)-4-[4-(2-fluoro-pyridin-3-yl)-5-methylsulfanyl-pyrimidin-2-ylamino]-benzamide] | 100 to 1000 nM | 100 to 1000 nM | 100 to 1000 nM
11 | CSc1cnc(Nc2ccc(C(=O)Nc3cc(CN4CCN(C)CC4)ccc3C)cc2)cc1-c1ccc(C(F)(F)F)cc1 [Compound 90, N-(2-methyl-5-((4-methylpiperazin-1-yl)methyl)phenyl)-4-((5-(methylthio)-4-(4-(trifluoromethyl)phenyl)pyridin-2-yl)amino)benzamide] | < 100 nM | < 100 nM | 100 to 1000 nM
12 | COc1cnc(Nc2ccc(C(=O)Nc3cc(CN4CCN(C)CC4)ccc3C)cc2)nc1-c1ccc(C#N)cc1 [Compound 51, 4-[4-(4-Cyano-phenyl)-5-methoxy-pyrimidin-2-ylamino]-N-[2-methyl-5-(4-methyl-piperazin-1-ylmethyl)-phenyl]-benzamide] | < 100 nM | < 100 nM | 100 to 1000 nM

The next lines start with the values.

Row | IC50 [1] | IC50 (Smo wild type) | IC50 (Smo D473H mutant) | SMILES
13 | < 100 nM | < 100 nM | 100 to 1000 nM | CSc1cnc(Nc2ccc(C(=O)Nc3cc(CN4CCN(C)CC4)ccc3C)cc2)nc1-c1ccc(F)cc1 [Compound 36, 4-[4-(4-Fluoro-phenyl)-5-methylsulfanyl-pyrimidin-2-ylamino]-N-[2-methyl-5-(4-methyl-piperazin-1-ylmethyl)-phenyl]-benzamide]
14 | < 100 nM | < 100 nM | < 100 nM | CSc1cnc(Nc2ccc(C(=O)Nc3cc(CN4CCOCC4)ccc3C)cc2F)nc1-c1ccc(OC(F)(F)F)cc1 [Compound 40, 3-Fluoro-N-(2-methyl-5-morpholin-4-ylmethyl-phenyl)-4-[5-methylsulfanyl-4-(4-trifluoromethoxy-phenyl)-pyrimidin-2-ylamino]-benzamide]
15 | < 100 nM | < 100 nM | 100 to 1000 nM | COc1cnc(Nc2ccc(C(=O)Nc3cc(CN4CCN(C)CC4)ccc3C)cc2F)nc1-c1ccc(OC(F)(F)F)cc1 [Compound 62, 3-Fluoro-4-[5-methoxy-4-(4-trifluoromethoxy-phenyl)-pyrimidin-2-ylamino]-N-[2-methyl-5-(4-methyl-piperazin-1-ylmethyl)-phenyl]-benzamide]
16 | < 100 nM | < 100 nM | 100 to 1000 nM | CSc1cnc(Nc2ccc(C(=O)Nc3cc(CN4CCOCC4)ccc3C)cc2F)nc1-c1ccc(F)cc1 [Compound 41, 3-Fluoro-4-[4-(4-fluoro-phenyl)-5-methylsulfanyl-pyrimidin-2-ylamino]-N-(2-methyl-5-morpholin-4-ylmethyl-phenyl)-benzamide]
17 | < 100 nM | < 100 nM | 100 to 1000 nM | CCN(CC)Cc1ccc(C)c(NC(=O)c2ccc(Nc3ncc(OC)c(-c4ccc(C#N)cc4)n3)cc2)c1 [Compound 50, 4-[4-(4-Cyano-phenyl)-5-methoxy-pyrimidin-2-ylamino]-N-(5-diethylaminomethyl-2-methyl-phenyl)-benzamide]
18 | < 100 nM | < 100 nM | < 100 nM | CSc1cnc(Nc2ccc(C(=O)Nc3cc(CN4CCOCC4)ccc3C)cc2)cc1-c1ccc(OC(F)(F)F)cc1 [Compound 81, N-(2-Methyl-5-morpholin-4-ylmethyl-phenyl)-4-[5-methylsulfanyl-4-(4-trifluoromethoxy-phenyl)-pyridin-2-ylamino)-benzamide]
19 | < 100 nM | < 100 nM | < 100 nM | CSc1cnc(Nc2ccc(C(=O)Nc3cc(CN4CCOCC4)ccc3F)cc2)nc1-c1ccc(OC(F)(F)F)cc1 [Compound 70, N-(2-Fluoro-5-morpholin-4-ylmethyl-phenyl)-4-[5-methylsulfanyl-4-(4-trifluoromethoxy-phenyl)-pyrimidin-2-ylamino]-benzamide]
20 | < 100 nM | < 100 nM | 100 to 1000 nM | CSc1cnc(Nc2ccc(C(=O)Nc3cc(CN4CCOCC4)ccc3F)cc2F)nc1-c1ccc(F)cc1 [Compound 57, 3-Fluoro-N-(2-fluoro-5-morpholin-4-ylmethyl-phenyl)-4-[4-(4-fluoro-phenyl)-5-methylsulfanyl-pyrimidin-2-ylamino]-benzamide]
21 | < 100 nM | < 100 nM | < 100 nM | COc1cnc(Nc2ccc(C(=O)Nc3cc(CN4CCOCC4)ccc3C)cc2)nc1-c1ccc(OC(F)(F)F)cc1 [Compound 38, 4-[5-Methoxy-4-(4-trifluoromethoxy-phenyl)-pyrimidin-2-ylamino]-N-(2-methyl-5-morpholin-4-ylmethyl-phenyl)-benzamide]
